# Measurements: patent US20150259747A1, “METHOD OF PREDICTING A PREDISPOSITION TO QT PROLONGATION” (priority 2007, published 2015)
# System: individuals genotyped at the rs993648 locus
# Assay: QT interval change after two weeks of oral iloperidone in 174 individuals genotyped at the CERKL rs993648 locus
# Assay type: in vivo, human
# Conditions: iloperidone 24 mg/day B.I.D. oral; for High QT, - test (number of individuals) / Low QT, - test (number of individuals): rs993648 genotype AB (- test); for High QT, - test (number of individuals) / High QT, + test (number of individuals) / Low QT, - test (number of individuals) / Low QT, + test (number of individuals): n=174; for High QT, + test (number of individuals) / Low QT, + test (number of individuals): rs993648 genotype non-AB (+ test)
# Experimental: Since the QT interval changes with changes in heart rate, the QT interval is often measured as a corrected QT (QTc) interval. Any number of formulas may be employed to calculate the QTc, including, for example, the Fridericia formula (QTcF), the Bazett formula (QTcB), and the Rautaharju formula (QTp), among others. In the studies described herein, QT was calculated using the Fridericia formula. However, the present invention includes the use of any such formula or method for calculating a QTc or an uncorrected QT. Using the genotypes at the SNP loci above, it is possible, with a high degree of certainty, to predict an individual's predisposition to QT prolongation.
# [1] = QTc change threshold >5 msec not exceeded
# [2] = QTc change threshold >15 msec not exceeded
# [3] = QTc change threshold >30 msec not exceeded
smiles,measurement,setting,value
COc1cc(C(C)=O)ccc1OCCCN1CCC(c2noc3cc(F)ccc23)CC1 [iloperidone],Odds Ratio,QTc change >5 msec vs rs993648 non-AB genotype,3.62
same,"High QT, - test (number of individuals)",QTc change >5 msec,38
same,"High QT, + test (number of individuals)",QTc change >5 msec,72
same,Odds Ratio,QTc change >15 msec vs rs993648 non-AB genotype,4.45
same,"High QT, - test (number of individuals)",QTc change >15 msec,18
same,"High QT, + test (number of individuals)",QTc change >15 msec,53
same,Odds Ratio,QTc change >30 msec vs rs993648 non-AB genotype,6.16
same,"High QT, - test (number of individuals)",QTc change >30 msec,4
same,"High QT, + test (number of individuals)",QTc change >30 msec,23
same,"Low QT, - test (number of individuals)",[1],42
same,"Low QT, + test (number of individuals)",[1],22
same,"Low QT, - test (number of individuals)",[2],62
same,"Low QT, + test (number of individuals)",[2],41
same,"Low QT, - test (number of individuals)",[3],76
same,"Low QT, + test (number of individuals)",[3],71
